Molecular target: DP-IV (Homo sapiens, UniProt P27487)
Experiment: DP-IV inhibition assay according to WO95/15309
Type: biochemical
Conditions: at concentrations up to 5 μM
Description: Compounds were assayed as inhibitors of DP-IV according to the methods described in WO95/15309.

DP-IV, sequence (P27487 whole entry): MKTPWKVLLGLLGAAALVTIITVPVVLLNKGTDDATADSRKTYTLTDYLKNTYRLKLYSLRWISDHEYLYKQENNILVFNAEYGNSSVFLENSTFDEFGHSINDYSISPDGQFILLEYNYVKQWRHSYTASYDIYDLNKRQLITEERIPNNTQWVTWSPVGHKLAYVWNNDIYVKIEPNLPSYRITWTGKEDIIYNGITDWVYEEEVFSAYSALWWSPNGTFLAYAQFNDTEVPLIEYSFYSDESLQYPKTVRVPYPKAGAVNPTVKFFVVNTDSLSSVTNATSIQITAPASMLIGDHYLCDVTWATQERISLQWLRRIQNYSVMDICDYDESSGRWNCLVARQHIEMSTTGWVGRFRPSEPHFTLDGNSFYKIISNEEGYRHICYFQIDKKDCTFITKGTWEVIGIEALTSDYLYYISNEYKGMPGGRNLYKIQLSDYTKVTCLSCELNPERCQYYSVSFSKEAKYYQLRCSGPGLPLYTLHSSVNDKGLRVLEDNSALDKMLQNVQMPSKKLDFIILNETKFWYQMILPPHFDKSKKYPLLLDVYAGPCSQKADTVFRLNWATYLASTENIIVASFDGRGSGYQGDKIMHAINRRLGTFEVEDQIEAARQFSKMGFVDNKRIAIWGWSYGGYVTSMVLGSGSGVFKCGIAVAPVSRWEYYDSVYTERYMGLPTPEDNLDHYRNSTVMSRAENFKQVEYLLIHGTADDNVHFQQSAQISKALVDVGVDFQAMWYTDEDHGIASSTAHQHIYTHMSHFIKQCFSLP

| Compound | inhibition of DP-IV |
| --- | --- |
| CC(=O)OC(C)OC(=O)N[C@@H](CCCNC(=O)c1cnccn1)C(=O)N1CC(F)(F)C[C@H]1C#N (stereo partly drawn) [Example 7, (2S)-1-[N^α-(1′-Acetoxyethoxycarbonyl)-N^ω-(pyrazinyl-2-carbonyl)-L-ornithinyl]-4,4-difluoropyrrolidine-2-carbonitrile] | do not show significant inhibition |
| CC(=O)OCOC(=O)N[C@@H](CCCNC(=O)c1cnc(Cl)c(Cl)c1)C(=O)N1CCC(F)(F)C1 [Example 8, 1-[N^α-(Acetoxymethoxycarbonyl)-N^ω-(5,6-dichloronicotinoyl)-L-ornithinyl]-3,3-difluoropyrrolidine] | do not show significant inhibition |

From patent US20040235752A1, “3-fluoro-pyrrolidines as antidiabetic agents” (priority 2001, published 2004)
